Where two headings read alike, the source gives them in different places.
Legend:
Format in all cases: binding
[1] = molecular target: various enzymes (Homo sapiens, UniProt O00141); details: compound 1 uM
Protocol: (§1) Ambit profiling was conducted in accordance with the manufacturer's instructions.

[2] = molecular target: various enzymes (Homo sapiens, UniProt O76039); details: compound 1 uM
Protocol: as §1

[3] = molecular target: various enzymes (Homo sapiens, UniProt O94768); details: compound 1 uM
Protocol: as §1

[4] = molecular target: various enzymes (Homo sapiens, UniProt P00519, T315I)
Protocol: as §1

[5] = molecular target: various enzymes (Homo sapiens, UniProt P00519, Y253F)
Protocol: as §1

[6] = molecular target: various enzymes (Homo sapiens, UniProt P08581, Y1235D)
Protocol: as §1

[7] = molecular target: various enzymes (Homo sapiens, UniProt P19784); details: compound 1 uM
Protocol: as §1

[8] = molecular target: various enzymes (Homo sapiens, UniProt P29317); details: compound 1 uM
Protocol: as §1

[9] = molecular target: various enzymes (Homo sapiens, UniProt P30291); details: compound 1 uM
Protocol: as §1

[10] = molecular target: various enzymes (Homo sapiens, UniProt P41240); details: compound 1 uM
Protocol: as §1

[11] = molecular target: various enzymes (Homo sapiens, UniProt P42336, H1047L)
Protocol: as §1

[12] = molecular target: various enzymes (Homo sapiens, UniProt P42336, M1043I)
Protocol: as §1

[13] = molecular target: various enzymes (Homo sapiens, UniProt P42338); details: compound 1 uM
Protocol: as §1

[14] = molecular target: various enzymes (Homo sapiens, UniProt P42679); details: compound 1 uM
Protocol: as §1

[15] = molecular target: various enzymes (Homo sapiens, UniProt P48729); details: compound 1 uM
Protocol: as §1

[16] = molecular target: various enzymes (Homo sapiens, UniProt P51451); details: compound 1 uM
Protocol: as §1

[17] = molecular target: various enzymes (Homo sapiens, UniProt P51955); details: compound 1 uM
Protocol: as §1

[18] = molecular target: various enzymes (Homo sapiens, UniProt P53350); details: compound 1 uM
Protocol: as §1

[19] = molecular target: various enzymes (Homo sapiens, UniProt P54646); details: compound 1 uM
Protocol: as §1

[20] = molecular target: various enzymes (Homo sapiens, UniProt Q06187); details: compound 1 uM
Protocol: as §1

[21] = molecular target: various enzymes (Homo sapiens, UniProt Q07912); details: compound 1 uM
Protocol: as §1

[22] = molecular target: various enzymes (Homo sapiens, UniProt Q13177); details: compound 1 uM
Protocol: as §1

[23] = molecular target: various enzymes (Homo sapiens, UniProt Q13554); details: compound 1 uM
Protocol: as §1

[24] = molecular target: various enzymes (Homo sapiens, UniProt Q13705); details: compound 1 uM
Protocol: as §1

[25] = molecular target: various enzymes (Homo sapiens, UniProt Q56UN5); details: compound 1 uM
Protocol: as §1

[26] = molecular target: various enzymes (Homo sapiens, UniProt Q8NEV4); details: compound 1 uM
Protocol: as §1

[27] = molecular target: various enzymes (Homo sapiens, UniProt Q9NRH2); details: compound 1 uM
Protocol: as §1

[28] = molecular target: T1, various enzymes (Homo sapiens, UniProt Q9NRM7); details: compound 1 uM
T1 sequence (Q9NRM7 1-1088): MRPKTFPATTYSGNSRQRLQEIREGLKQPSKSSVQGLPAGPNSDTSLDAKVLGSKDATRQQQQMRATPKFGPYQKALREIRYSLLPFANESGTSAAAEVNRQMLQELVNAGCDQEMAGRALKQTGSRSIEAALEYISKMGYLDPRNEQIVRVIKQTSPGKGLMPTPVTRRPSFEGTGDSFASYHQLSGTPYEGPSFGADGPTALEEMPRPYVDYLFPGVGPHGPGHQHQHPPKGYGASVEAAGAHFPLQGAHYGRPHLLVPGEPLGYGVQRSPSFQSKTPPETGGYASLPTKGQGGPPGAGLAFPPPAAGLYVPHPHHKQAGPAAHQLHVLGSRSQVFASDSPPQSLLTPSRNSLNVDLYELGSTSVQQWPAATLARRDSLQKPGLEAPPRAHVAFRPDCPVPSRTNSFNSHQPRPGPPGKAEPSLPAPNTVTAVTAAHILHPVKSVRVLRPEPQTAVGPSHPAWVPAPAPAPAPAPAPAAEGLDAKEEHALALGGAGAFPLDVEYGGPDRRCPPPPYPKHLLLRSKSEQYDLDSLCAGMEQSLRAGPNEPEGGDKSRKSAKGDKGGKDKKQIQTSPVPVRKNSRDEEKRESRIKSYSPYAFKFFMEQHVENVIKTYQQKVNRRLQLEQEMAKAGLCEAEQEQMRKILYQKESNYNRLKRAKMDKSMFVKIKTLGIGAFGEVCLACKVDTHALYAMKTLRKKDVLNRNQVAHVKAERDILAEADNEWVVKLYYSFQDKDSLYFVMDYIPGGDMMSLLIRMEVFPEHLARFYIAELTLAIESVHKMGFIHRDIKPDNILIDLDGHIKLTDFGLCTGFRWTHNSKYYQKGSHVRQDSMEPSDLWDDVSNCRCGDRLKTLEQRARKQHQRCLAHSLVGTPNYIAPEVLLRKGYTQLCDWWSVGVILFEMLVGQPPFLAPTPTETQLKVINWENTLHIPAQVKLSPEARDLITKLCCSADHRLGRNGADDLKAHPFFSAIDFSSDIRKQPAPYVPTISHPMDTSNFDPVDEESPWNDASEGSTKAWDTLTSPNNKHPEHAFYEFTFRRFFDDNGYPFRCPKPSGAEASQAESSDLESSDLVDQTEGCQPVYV
Protocol: as §1

[29] = molecular target: various enzymes (Homo sapiens, UniProt Q9Y6E0); details: compound 1 uM
Protocol: as §1

Sequence of various enzymes (Homo sapiens, UniProt Q13177) (Q13177 whole entry): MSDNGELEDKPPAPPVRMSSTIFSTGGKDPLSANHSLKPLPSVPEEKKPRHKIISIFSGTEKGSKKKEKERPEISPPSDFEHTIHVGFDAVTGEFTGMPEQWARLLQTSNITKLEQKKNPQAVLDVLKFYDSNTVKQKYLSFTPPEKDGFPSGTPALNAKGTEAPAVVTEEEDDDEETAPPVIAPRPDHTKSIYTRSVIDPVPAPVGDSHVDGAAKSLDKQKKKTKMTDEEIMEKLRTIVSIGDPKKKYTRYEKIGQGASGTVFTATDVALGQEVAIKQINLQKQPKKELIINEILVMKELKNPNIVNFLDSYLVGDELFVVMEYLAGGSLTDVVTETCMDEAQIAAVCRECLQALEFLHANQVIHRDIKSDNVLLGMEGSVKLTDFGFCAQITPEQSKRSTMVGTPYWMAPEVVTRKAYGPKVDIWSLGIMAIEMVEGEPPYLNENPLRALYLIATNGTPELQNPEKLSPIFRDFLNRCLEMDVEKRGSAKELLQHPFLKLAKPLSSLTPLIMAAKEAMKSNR
Sequence of various enzymes (Homo sapiens, UniProt P42336, M1043I) (P42336 whole entry M1043I): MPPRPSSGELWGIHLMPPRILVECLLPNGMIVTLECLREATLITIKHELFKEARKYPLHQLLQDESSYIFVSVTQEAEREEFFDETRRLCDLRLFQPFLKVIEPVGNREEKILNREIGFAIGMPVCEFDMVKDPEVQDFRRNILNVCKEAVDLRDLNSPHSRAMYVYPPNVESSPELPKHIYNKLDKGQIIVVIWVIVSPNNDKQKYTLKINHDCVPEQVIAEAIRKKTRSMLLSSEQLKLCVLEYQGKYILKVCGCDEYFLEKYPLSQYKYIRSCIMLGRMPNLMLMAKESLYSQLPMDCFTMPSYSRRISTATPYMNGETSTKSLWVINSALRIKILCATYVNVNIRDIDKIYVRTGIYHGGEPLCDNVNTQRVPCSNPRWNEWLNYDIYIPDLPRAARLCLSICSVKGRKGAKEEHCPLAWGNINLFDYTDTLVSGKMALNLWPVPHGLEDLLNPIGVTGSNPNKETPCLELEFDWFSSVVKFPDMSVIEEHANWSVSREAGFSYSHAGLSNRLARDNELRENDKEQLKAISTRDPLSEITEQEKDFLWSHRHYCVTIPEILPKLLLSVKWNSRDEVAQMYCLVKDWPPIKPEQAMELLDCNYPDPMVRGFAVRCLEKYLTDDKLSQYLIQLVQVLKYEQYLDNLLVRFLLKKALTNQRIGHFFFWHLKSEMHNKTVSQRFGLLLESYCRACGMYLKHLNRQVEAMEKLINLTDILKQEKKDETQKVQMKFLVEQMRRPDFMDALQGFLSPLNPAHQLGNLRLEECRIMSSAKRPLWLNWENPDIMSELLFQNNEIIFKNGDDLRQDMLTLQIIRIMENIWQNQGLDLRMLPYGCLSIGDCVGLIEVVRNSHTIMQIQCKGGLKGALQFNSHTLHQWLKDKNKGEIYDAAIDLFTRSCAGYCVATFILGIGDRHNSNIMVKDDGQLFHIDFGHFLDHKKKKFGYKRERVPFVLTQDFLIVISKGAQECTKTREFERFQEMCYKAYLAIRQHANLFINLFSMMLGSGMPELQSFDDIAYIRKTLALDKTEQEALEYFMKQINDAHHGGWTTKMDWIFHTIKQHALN
Sequence of various enzymes (Homo sapiens, UniProt P19784) (P19784 whole entry): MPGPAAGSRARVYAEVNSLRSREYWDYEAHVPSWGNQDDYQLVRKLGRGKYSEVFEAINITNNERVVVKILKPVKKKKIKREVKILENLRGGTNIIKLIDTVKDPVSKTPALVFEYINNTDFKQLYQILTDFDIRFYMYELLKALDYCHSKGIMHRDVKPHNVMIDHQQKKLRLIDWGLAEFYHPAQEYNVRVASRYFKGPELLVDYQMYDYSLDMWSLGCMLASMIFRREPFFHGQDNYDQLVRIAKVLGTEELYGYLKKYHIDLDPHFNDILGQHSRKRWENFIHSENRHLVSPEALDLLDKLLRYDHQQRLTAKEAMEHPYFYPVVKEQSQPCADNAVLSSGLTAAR
Sequence of various enzymes (Homo sapiens, UniProt O76039) (O76039 whole entry): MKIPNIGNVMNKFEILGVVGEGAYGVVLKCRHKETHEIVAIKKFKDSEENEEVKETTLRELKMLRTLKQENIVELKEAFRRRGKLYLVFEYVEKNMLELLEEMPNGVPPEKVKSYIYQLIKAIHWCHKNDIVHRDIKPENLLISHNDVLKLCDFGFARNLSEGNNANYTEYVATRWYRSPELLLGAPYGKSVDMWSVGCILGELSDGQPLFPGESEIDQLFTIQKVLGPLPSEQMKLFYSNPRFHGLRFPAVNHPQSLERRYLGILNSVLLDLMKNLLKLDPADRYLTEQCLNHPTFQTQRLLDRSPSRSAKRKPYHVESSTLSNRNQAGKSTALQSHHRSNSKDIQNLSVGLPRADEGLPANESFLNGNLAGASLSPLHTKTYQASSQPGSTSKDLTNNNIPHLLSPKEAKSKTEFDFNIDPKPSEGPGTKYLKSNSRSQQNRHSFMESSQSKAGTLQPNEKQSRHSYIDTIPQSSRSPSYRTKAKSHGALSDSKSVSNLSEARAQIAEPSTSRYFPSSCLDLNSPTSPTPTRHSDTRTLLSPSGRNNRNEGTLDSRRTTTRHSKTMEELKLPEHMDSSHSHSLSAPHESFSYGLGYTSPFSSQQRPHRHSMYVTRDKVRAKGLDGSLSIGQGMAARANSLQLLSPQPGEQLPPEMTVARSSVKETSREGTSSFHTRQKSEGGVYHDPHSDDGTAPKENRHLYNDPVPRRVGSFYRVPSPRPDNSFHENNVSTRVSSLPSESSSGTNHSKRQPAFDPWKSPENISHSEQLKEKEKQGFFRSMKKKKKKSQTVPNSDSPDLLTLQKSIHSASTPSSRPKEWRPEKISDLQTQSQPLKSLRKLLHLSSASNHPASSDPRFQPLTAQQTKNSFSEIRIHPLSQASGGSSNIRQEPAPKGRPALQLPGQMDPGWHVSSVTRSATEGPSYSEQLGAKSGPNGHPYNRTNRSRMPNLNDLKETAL
Sequence of various enzymes (Homo sapiens, UniProt Q9NRH2) (Q9NRH2 whole entry): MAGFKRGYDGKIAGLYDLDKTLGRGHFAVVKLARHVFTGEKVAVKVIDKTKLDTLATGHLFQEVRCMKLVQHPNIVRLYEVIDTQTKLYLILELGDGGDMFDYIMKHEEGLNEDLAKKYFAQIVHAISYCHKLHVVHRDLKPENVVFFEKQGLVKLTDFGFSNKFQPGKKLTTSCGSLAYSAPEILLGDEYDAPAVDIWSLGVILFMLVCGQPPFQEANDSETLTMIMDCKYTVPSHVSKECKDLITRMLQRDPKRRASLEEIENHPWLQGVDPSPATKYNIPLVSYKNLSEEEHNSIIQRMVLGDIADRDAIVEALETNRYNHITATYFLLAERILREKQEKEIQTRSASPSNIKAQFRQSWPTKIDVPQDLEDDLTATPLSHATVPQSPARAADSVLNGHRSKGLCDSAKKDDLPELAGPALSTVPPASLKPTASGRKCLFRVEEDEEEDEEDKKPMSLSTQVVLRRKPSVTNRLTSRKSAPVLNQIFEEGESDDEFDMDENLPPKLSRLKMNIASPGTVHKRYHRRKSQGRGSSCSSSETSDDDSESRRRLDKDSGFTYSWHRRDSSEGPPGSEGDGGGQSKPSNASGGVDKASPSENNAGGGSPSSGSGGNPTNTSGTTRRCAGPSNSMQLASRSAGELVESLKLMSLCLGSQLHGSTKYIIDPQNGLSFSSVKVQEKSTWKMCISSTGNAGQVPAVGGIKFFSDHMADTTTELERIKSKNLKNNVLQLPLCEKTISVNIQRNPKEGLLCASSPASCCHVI
Sequence of various enzymes (Homo sapiens, UniProt P53350) (P53350 whole entry): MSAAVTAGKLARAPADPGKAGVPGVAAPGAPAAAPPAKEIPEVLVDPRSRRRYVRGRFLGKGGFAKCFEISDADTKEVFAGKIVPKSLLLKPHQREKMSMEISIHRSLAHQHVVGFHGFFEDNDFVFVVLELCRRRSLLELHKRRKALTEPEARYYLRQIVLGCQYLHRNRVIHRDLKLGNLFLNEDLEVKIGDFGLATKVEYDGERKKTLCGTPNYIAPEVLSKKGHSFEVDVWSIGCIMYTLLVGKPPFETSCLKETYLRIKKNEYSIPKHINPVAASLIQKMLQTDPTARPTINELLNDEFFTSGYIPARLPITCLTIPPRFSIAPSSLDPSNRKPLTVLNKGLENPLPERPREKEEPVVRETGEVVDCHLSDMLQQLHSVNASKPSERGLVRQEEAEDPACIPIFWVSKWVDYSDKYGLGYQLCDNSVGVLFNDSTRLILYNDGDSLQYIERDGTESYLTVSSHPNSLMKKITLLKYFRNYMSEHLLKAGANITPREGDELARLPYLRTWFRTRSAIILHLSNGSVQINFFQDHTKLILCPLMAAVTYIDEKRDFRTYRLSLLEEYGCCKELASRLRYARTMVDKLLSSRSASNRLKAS
Sequence of various enzymes (Homo sapiens, UniProt Q06187) (Q06187 whole entry): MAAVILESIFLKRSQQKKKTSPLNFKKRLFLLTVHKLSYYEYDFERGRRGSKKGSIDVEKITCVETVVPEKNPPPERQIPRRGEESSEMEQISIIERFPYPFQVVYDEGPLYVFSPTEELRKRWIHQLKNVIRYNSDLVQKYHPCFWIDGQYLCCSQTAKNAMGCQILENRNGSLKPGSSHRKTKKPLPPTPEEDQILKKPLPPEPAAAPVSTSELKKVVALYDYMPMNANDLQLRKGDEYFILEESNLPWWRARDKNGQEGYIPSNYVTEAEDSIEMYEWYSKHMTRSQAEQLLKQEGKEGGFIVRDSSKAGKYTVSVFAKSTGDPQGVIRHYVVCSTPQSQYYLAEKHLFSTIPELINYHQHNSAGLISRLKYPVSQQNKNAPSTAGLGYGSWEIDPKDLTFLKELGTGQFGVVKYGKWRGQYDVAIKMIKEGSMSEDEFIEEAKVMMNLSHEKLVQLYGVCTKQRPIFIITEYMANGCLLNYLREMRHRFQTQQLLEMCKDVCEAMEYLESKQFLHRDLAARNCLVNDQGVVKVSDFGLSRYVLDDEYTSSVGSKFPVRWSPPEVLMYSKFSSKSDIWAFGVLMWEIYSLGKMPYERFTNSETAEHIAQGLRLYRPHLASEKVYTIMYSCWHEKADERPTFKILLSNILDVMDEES
Sequence of various enzymes (Homo sapiens, UniProt P42336, H1047L) (P42336 whole entry H1047L): as the sequence (P42336 whole entry M1043I) above, with I1043M, H1047L counted along it

Structure (SMILES)	Ambit profiling: SGK [1]	Ambit profiling: CDKL5 [2]	Ambit profiling: DRAK2 [3]	Ambit profiling: CSNK2A2 [7]	Ambit profiling: EPHA2 [8]	Ambit profiling: WEE1 [9]	Ambit profiling: CSK [10]	Ambit profiling: PIK3CB [13]	Ambit profiling: CTK [14]	Ambit profiling: CSNK1A1 [15]	Ambit profiling: BLK [16]	Ambit profiling: NEK2 [17]	Ambit profiling: PLK1 [18]	Ambit profiling: AMPK-alpha2 [19]	Ambit profiling: BTK [20]	Ambit profiling: TNK2 [21]	Ambit profiling: PAK2 [22]	Ambit profiling: CAMK2B [23]	Ambit profiling: ACVR2B [24]	Ambit profiling: YSK4 [25]	also measured
COc1c2c(nn1C)CN(C(C)C)C(=O)CCCn1cc(c(C(F)(F)F)n1)-c1c[nH]c3ncc-2cc13 [Compound 50, (Z)-5-isopropyl-35-methoxy-31-methyl-13-(trifluoromethyl)-11H,21H,31H-5-aza-2(3,5)-pyrrolo[2,3-b]pyridina-1(4,1),3(4,3)-dipyrazolacyclononaphan-6-one]	6	100	98	8.7	56	38	4.7	100	53	74	1.6	68	100	57	56	1.9	100	46	92	0.1	Ambit profiling: ABLT(T315I)-nonphosphorylated [4]: 8.8; Ambit profiling: ABLT(T315I)-phosphorylated [4]: 4.9; Ambit profiling: ABL1(Y253F)-phosphorylated [5]: 10; Ambit profiling: MET(Y1235D) [6]: 1.4; Ambit profiling: PIK3CA(H1047L) [11]: 83; Ambit profiling: PIK3CA(M1043I) [12]: 86; Ambit profiling: MYO3A [26]: 11; Ambit profiling: SNRK [27]: 86; Ambit profiling: LATS2 [28]: 97; Ambit profiling: MST3 [29]: 63
CC(C)N1Cc2nn(C)cc2-c2cnc3[nH]cc(c3c2)-c2cn(nc2C(F)(F)F)CCCC1=O [Compound 45, (Z)-5-isopropyl-31-methyl-13-(trifluoromethyl)-11H,21H,31H-5-aza-2(3,5)-pyrrolo[2,3-b]pyridina-1(4,1),3(4,3)-dipyrazolacyclononaphan-6-one]	1.3	68	100	1.8	48	73	3.9	100	70	78	3.7	49	93	87	55	11	74	65	79	17	Ambit profiling: ABL1(T315I)-nonphosphorylated ([4]; compound 1 uM): 9.4; Ambit profiling: ABL1(T315I)-phosphorylated ([4]; compound 1 uM): 11; Ambit profiling: ABL1(V253F)-phosphorylated ([5]; compound 1 uM): 76; Ambit profiling: MET(Y1235D) ([6]; compound 1 uM): 4.8; Ambit profiling: PIK3CA(H1047L) ([11]; compound 1 uM): 100; Ambit profiling: PIK3CA(M1043I) ([12]; compound 1 uM): 81; Ambit profiling: MYO3A [26]: 23; Ambit profiling: SNRK [27]: 100; Ambit profiling: LATS2 [28]: 100; Ambit profiling: MST3 [29]: 57

— patent US12157741B2, “Macrocyclic inhibitors of DYRK1A” (DANA-FARBER CANCER INSTITUTE, INC., priority 2018, dated 2024)
